From patent US20060069132A1, “Azolecarboxamide herbicides” (priority 2004, published 2006)

Legend:
pigweed = assay: Test B pre-/postemergence herbicide test; assay type: in vivo, Amaranthus retroflexus; conditions: for Pigweed plant response rating: postemergence, visual rating
Procedure, shortened: (§1)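 Greenhouse pot assay with simultaneous preemergence (treated seed) and postemergence (2–18 cm seedlings) applications of surfactant-containing, non-phytotoxic solvent formulations. Response scored visually 13–15 days later on a 0–100 scale, 100 meaning complete control.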

giant foxtail = assay: Test B pre-/postemergence herbicide test; assay type: in vivo, Setaria faberi; conditions: for Foxtail, Giant plant response rating: postemergence, visual rating
Procedure, shortened: as §1

blackgrass = assay: Test B postemergence herbicide test; assay type: in vivo, Alopecurus myosuroides; conditions: scale 0 (no effect) to 100 (complete control); for Blackgrass plant response rating: postemergence, visual rating
Procedure, shortened: (§2)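 Visual ratings, 0 (no effect) to 100 (complete control), made versus controls after 13–15 d greenhouse. Paddy plants treated at 2-leaf stage; postemergence plants at 1- to 4-leaf stage, 2–18 cm tall.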

cocklebur = assay: Test B pre-/postemergence herbicide test; assay type: in vivo, Xanthium strumarium; conditions: for Cocklebur plant response rating: postemergence, visual rating
Procedure, shortened: (§3)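 Visual rating, 0 (no effect) to 100 (complete control), versus untreated controls after 13–15 d in greenhouse. Pre- and postemergence applications (postemergence plants 2–18 cm, 1–4 leaves); flooded paddy arm at 2-leaf stage. Compounds in non-phytotoxic solvent plus surfactant.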

large crabgrass = assay: Test B pre-/postemergence herbicide test; assay type: in vivo, Digitaria sanguinalis; conditions: for Crabgrass, Large plant response rating: postemergence, visual rating
Procedure, shortened: as §1

morningglory = assay: Test B pre-/postemergence herbicide test; assay type: in vivo, Ipomoea coccinea; conditions: for Morningglory plant response rating: postemergence, visual rating
Procedure, shortened: as §3

rice = assay: Test B flooded paddy test; assay type: in vivo, Oryza sativa; conditions: 1000 g ai/ha, visual rating, scale 0 to 100 (0 no effect, 100 complete control), 13 to 15 days
Procedure, shortened: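 Greenhouse test; postemergence application to plants at 1–4 leaves (2–18 cm); paddy species at 2 leaves; evaluated visually vs controls at 13–15 days; scale 0–100 (100 = complete control).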

corn = assay: Test B pre-/postemergence herbicide test; assay type: in vivo, Zea mays; conditions: for Corn plant response rating: postemergence, visual rating
Procedure, shortened: as §1

Surinam grass = assay: Test B pre-/postemergence herbicide test; assay type: in vivo, Urochloa decumbens; conditions: for Surinam Grass plant response rating: postemergence, visual rating
Procedure, shortened: as §1

[1] = tested on: small flower umbrella sedge; assay: Test B flooded paddy test; assay type: in vivo, Cyperus difformis; conditions: 1000 g ai/ha, visual rating, scale 0 to 100 (0 no effect, 100 complete control), 13 to 15 days
Procedure, shortened: as §2

lambsquarters = assay: Test B pre-/postemergence herbicide test; assay type: in vivo, Chenopodium album; conditions: for Lambsquarters plant response rating: postemergence, visual rating
Procedure, shortened: as §1

barnyardgrass = assay: Test B flooded paddy test; assay type: in vivo, Echinochloa crus-galli; conditions: 1000 g ai/ha, visual rating, scale 0 to 100 (0 no effect, 100 complete control), 13 to 15 days
Procedure, shortened: as §2

wild oat = assay: Test B postemergence herbicide test; assay type: in vivo, Avena fatua; conditions: scale 0 (no effect) to 100 (complete control); for Oat, Wild plant response rating: postemergence, visual rating
Procedure, shortened: (§4)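 Plants grow to 1- to 4-leaf stage (2–18 cm) for postemergence spraying, or to 2-leaf stage for the paddy test. Formulated compound is applied. Greenhouse holding lasts 13–15 days. Response is scored visually relative to controls, 0 no effect to 100 complete control; a dash means no result.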

velvetleaf = assay: Test B pre-/postemergence herbicide test; assay type: in vivo, Abutilon theophrasti; conditions: for Velvetleaf plant response rating: postemergence, visual rating
Procedure, shortened: as §1

wheat = assay: Test B postemergence herbicide test; assay type: in vivo, Triticum aestivum; parameters: key to Wheat plant response rating: 0 = no effect, 100 = complete control; conditions: scale 0 (no effect) to 100 (complete control); for Wheat plant response rating: postemergence, visual rating
Procedure, shortened: as §4

[2] = 500 g ai/ha, visual rating 0-100, 0 no effect, 100 complete control, preemergence
[3] = Postemergence, 500 g ai/ha, visual rating after 13 to 15 days, scale 0 (no effect) to 100 (complete control)
[4] = 125 g ai/ha, scale 0 (no effect) to 100 (complete control)
[5] = preemergence, 125 g ai/ha, 0 to 100 scale, 0 is no effect, 100 is complete control
[6] = Postemergence, 500 g ai/ha, visual rating after 13 to 15 days
[7] = 500 g ai/ha, scale 0 (no effect) to 100 (complete control)

SMILES: CC(=NO)c1cccc(NC(=O)c2cc(C(C)(C)C)nn2CC(F)(F)F)c1 [Compound 112]
- Plant response rating, Pigweed (pigweed; [2]): 90
- Plant response rating, Pigweed (pigweed; [3]): 100
- Pigweed plant response rating (pigweed; [4]): 90
- Plant response rating, Pigweed (pigweed; [5]): 0
- Plant response rating, Foxtail, Giant (giant foxtail; [2]): 20
- Plant response rating, Foxtail, Giant (giant foxtail; [3]): 30
- Foxtail, Giant plant response rating (giant foxtail; [4]): 20
- Plant response rating, Foxtail, Giant (giant foxtail; [5]): 10
- Plant response rating, Blackgrass (blackgrass; [6]): 20
- Blackgrass plant response rating (blackgrass; 125 g ai/ha): 20
- Plant response rating, Cocklebur (cocklebur; [2]): 0
- Plant response rating, Cocklebur (cocklebur; [3]): 100
- Cocklebur plant response rating (cocklebur; [4]): 60
- Plant response rating, Cocklebur (cocklebur; [5]): 0
- Plant response rating, Crabgrass, Large (large crabgrass; [2]): 90
- Plant response rating, Crabgrass, Large (large crabgrass; [3]): 30
- Crabgrass, Large plant response rating (large crabgrass; [4]): 20
- Plant response rating, Crabgrass, Large (large crabgrass; [5]): 20
- Plant response rating, Morningglory (morningglory; [2]): 60
- Plant response rating, Morningglory (morningglory; [3]): 30
- Morningglory plant response rating (morningglory; [4]): 20
- Plant response rating, Morningglory (morningglory; [5]): 0
- Rice plant response rating (rice): 70
- Plant response rating, Corn (corn; [2]): 0
- Plant response rating, Corn (corn; [3]): 40
- Corn plant response rating (corn; [4]): 40
- Plant response rating, Corn (corn; [5]): 0
- Plant response rating, Surinam Grass (Surinam grass; [2]): 20
- Plant response rating, Surinam Grass (Surinam grass; [3]): 20
- Surinam Grass plant response rating (Surinam grass; [4]): 20
- Plant response rating, Surinam Grass (Surinam grass; [5]): 20
- Sedge, Umbrella plant response rating [1]: 80
- Plant response rating, Lambsquarters (lambsquarters; [2]): 90
- Plant response rating, Lambsquarters (lambsquarters; [3]): 100
- Lambsquarters plant response rating (lambsquarters; [4]): 90
- Plant response rating, Lambsquarters (lambsquarters; [5]): 0
- Barnyardgrass plant response rating (barnyardgrass): 50
- Plant response rating, Oat, Wild (wild oat; [6]): 40
- Oat, Wild plant response rating (wild oat; 125 g ai/ha): 40
- Plant response rating, Velvetleaf (velvetleaf; [2]): 50
- Plant response rating, Velvetleaf (velvetleaf; [3]): 70
- Velvetleaf plant response rating (velvetleaf; [4]): 30
- Plant response rating, Velvetleaf (velvetleaf; [5]): 0
- Plant response rating, Wheat (wheat; [6]): 30
- Wheat plant response rating (wheat; 125 g ai/ha): 20

SMILES: CCn1nc(C(C)(C)C)cc1C(=O)Nc1cccc(S(=O)(=O)C(F)(F)F)c1 [Compound 134]
- Plant response rating, Pigweed (pigweed; [2]): 100
- Pigweed plant response rating (pigweed; [4]): 80
- Pigweed plant response rating (pigweed; [7]): 90
- Plant response rating, Pigweed (pigweed; [5]): 100
- Plant response rating, Foxtail, Giant (giant foxtail; [2]): 70
- Foxtail, Giant plant response rating (giant foxtail; [4]): 30
- Foxtail, Giant plant response rating (giant foxtail; [7]): 40
- Plant response rating, Foxtail, Giant (giant foxtail; [5]): 20
- Blackgrass plant response rating (blackgrass; 125 g ai/ha): 0
- Blackgrass plant response rating (blackgrass; 500 g ai/ha): 20
- Plant response rating, Cocklebur (cocklebur; [2]): 0
- Cocklebur plant response rating (cocklebur; [4]): 80
- Cocklebur plant response rating (cocklebur; [7]): 100
- Plant response rating, Cocklebur (cocklebur; [5]): 0
- Plant response rating, Crabgrass, Large (large crabgrass; [2]): 100
- Crabgrass, Large plant response rating (large crabgrass; [4]): 30
- Crabgrass, Large plant response rating (large crabgrass; [7]): 30
- Plant response rating, Crabgrass, Large (large crabgrass; [5]): 80
- Plant response rating, Morningglory (morningglory; [2]): 20
- Morningglory plant response rating (morningglory; [4]): 20
- Morningglory plant response rating (morningglory; [7]): 40
- Plant response rating, Morningglory (morningglory; [5]): 10
- Rice plant response rating (rice): 60
- Plant response rating, Corn (corn; [2]): 10
- Corn plant response rating (corn; [4]): 20
- Corn plant response rating (corn; [7]): 30
- Plant response rating, Corn (corn; [5]): 0
- Plant response rating, Surinam Grass (Surinam grass; [2]): 50
- Surinam Grass plant response rating (Surinam grass; [4]): 20
- Surinam Grass plant response rating (Surinam grass; [7]): 40
- Plant response rating, Surinam Grass (Surinam grass; [5]): 30
- Sedge, Umbrella plant response rating [1]: 80
- Plant response rating, Lambsquarters (lambsquarters; [2]): 100
- Lambsquarters plant response rating (lambsquarters; [4]): 80
- Lambsquarters plant response rating (lambsquarters; [7]): 90
- Plant response rating, Lambsquarters (lambsquarters; [5]): 100
- Barnyardgrass plant response rating (barnyardgrass): 60
- Oat, Wild plant response rating (wild oat; 125 g ai/ha): 30
- Oat, Wild plant response rating (wild oat; 500 g ai/ha): 30
- Plant response rating, Velvetleaf (velvetleaf; [2]): 90
- Velvetleaf plant response rating (velvetleaf; [4]): 30
- Velvetleaf plant response rating (velvetleaf; [7]): 40
- Plant response rating, Velvetleaf (velvetleaf; [5]): 30
- Wheat plant response rating (wheat; 125 g ai/ha): 10
- Wheat plant response rating (wheat; 500 g ai/ha): 20

SMILES: CCn1nc(C(C)(C)C)cc1C(=O)Nc1cccc(C(=O)NC2CC2)n1 [Compound 146]
- Plant response rating, Pigweed (pigweed; [2]): 100
- Pigweed plant response rating (pigweed; [4]): 80
- Pigweed plant response rating (pigweed; [7]): 90
- Plant response rating, Pigweed (pigweed; [5]): 100
- Plant response rating, Foxtail, Giant (giant foxtail; [2]): 90
- Foxtail, Giant plant response rating (giant foxtail; [4]): 20
- Foxtail, Giant plant response rating (giant foxtail; [7]): 20
- Plant response rating, Foxtail, Giant (giant foxtail; [5]): 10
- Blackgrass plant response rating (blackgrass; 125 g ai/ha): 10
- Blackgrass plant response rating (blackgrass; 500 g ai/ha): 20
- Plant response rating, Cocklebur (cocklebur; [2]): 0
- Cocklebur plant response rating (cocklebur; [4]): 20
- Cocklebur plant response rating (cocklebur; [7]): 80
- Plant response rating, Cocklebur (cocklebur; [5]): 0
- Plant response rating, Crabgrass, Large (large crabgrass; [2]): 100
- Crabgrass, Large plant response rating (large crabgrass; [4]): 10
- Crabgrass, Large plant response rating (large crabgrass; [7]): 20
- Plant response rating, Crabgrass, Large (large crabgrass; [5]): 10
- Plant response rating, Morningglory (morningglory; [2]): 10
- Morningglory plant response rating (morningglory; [4]): 0
- Morningglory plant response rating (morningglory; [7]): 20
- Plant response rating, Morningglory (morningglory; [5]): 0
- Rice plant response rating (rice): 40
- Plant response rating, Corn (corn; [2]): 0
- Corn plant response rating (corn; [4]): 10
- Corn plant response rating (corn; [7]): 30
- Plant response rating, Corn (corn; [5]): 0
- Plant response rating, Surinam Grass (Surinam grass; [2]): 30
- Surinam Grass plant response rating (Surinam grass; [4]): 10
- Surinam Grass plant response rating (Surinam grass; [7]): 30
- Plant response rating, Surinam Grass (Surinam grass; [5]): 10
- Sedge, Umbrella plant response rating [1]: 90
- Plant response rating, Lambsquarters (lambsquarters; [2]): 100
- Lambsquarters plant response rating (lambsquarters; [4]): 80
- Lambsquarters plant response rating (lambsquarters; [7]): 90
- Plant response rating, Lambsquarters (lambsquarters; [5]): 80
- Barnyardgrass plant response rating (barnyardgrass): 60
- Oat, Wild plant response rating (wild oat; 125 g ai/ha): 10
- Oat, Wild plant response rating (wild oat; 500 g ai/ha): 20
- Plant response rating, Velvetleaf (velvetleaf; [2]): 90
- Velvetleaf plant response rating (velvetleaf; [4]): 50
- Velvetleaf plant response rating (velvetleaf; [7]): 60
- Plant response rating, Velvetleaf (velvetleaf; [5]): 20
- Wheat plant response rating (wheat; 500 g ai/ha): 10
